Reference: patent US20230093861A1, “RAPAMYCIN ANALOGS AS MTOR INHIBITORS” (Revolution Medicines, Inc., priority 2017, published 2023)
Where two headings read alike, the source gives them in different places.

What was measured:
[1] = test system: P-Akt (S473); assay: Cell based AlphaLISA assay, inhibition of P-Akt (S473) (mTORC2 substrate phosphorylation) in MDA-MB-468 cells; details: Homo sapiens, two to four hours at 37° C.
Summary of the method: (§1)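 After treatment, cells were lysed in the kit's buffer once assay medium was withdrawn. Duplicate Alpha measurements tracked each phospho-epitope, and dose-response data were fitted to IC50 following normalization to control wells.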

[2] = test system: P-P70S6K (T389); assay: Cell based AlphaLISA assay, inhibition of P-P70S6K (T389) (mTORC1 substrate phosphorylation) in MDA-MB-468 cells; details: Homo sapiens, 4 h, two to four hours at 37° C.
Summary of the method: as §1

[3] = test system: P-4E-BP1 (T37/46); assay: Cell based AlphaLISA assay, inhibition of P-4E-BP1 (T37/46) (mTORC1 substrate phosphorylation) in MDA-MB-468 cells; details: Homo sapiens, two to four hours at 37° C.
Summary of the method: as §1

[4] = AlphaLISA, read-out: pIC50 for Inhibition of mTORC1 and mTORC2 Substrate Phosphorylation, P-P70S6K-(T389) (converted)
[5] = MDA-MB-468, 4 h, AlphaLISA, read-out: pIC50 for Inhibition of mTORC1 and mTORC2 Substrate Phosphorylation, p-AKT 1/2/3 -(S473) (converted)
[6] = MDA-MB-468, 4 h, AlphaLISA, read-out: pIC50 for Inhibition of mTORC1 and mTORC2 Substrate Phosphorylation, P-4E-BP1-(T37/46) (converted)

Row | IC50 ([1]; MDA-MB-468, 4 h, AlphaLisa SureFire Ultra, read-out: IC50 for Inhibition of mTORC1 and mTORC2 Substrate Phosphorylation, p-AKT1/2/3-(S473)) | IC50 ([2]; AlphaLisa SureFire Ultra, read-out: IC50 for Inhibition of mTORC1 and mTORC2 Substrate Phosphorylation, p-P70S6K-(T389)) | IC50 ([3]; MDA-MB-468, 4 h, AlphaLisa SureFire Ultra, read-out: IC50 for Inhibition of mTORC1 and mTORC2 Substrate Phosphorylation, p-4E-BP1-(T37/46)) | SMILES | IC50 ([1]; 4 h, AlphaLISA, read-out: pIC50 for Inhibition of mTORC1 and mTORC2 Substrate Phosphorylation, p-AKT 1/2/3 -(S473) (converted)) | IC50 [2, 4] | IC50 ([3]; 4 h, AlphaLISA, read-out: pIC50 for Inhibition of mTORC1 and mTORC2 Substrate Phosphorylation, P-4E-BP1-(T37/46) (converted)) | IC50 [1, 5] | IC50 [3, 6]
1 | – | – | – | CO[C@H]1C[C@@H]2CC[C@@H](C)[C@@](O)(O2)C(=O)C(=O)N2CCCC[C@H]2C(=O)O[C@H]([C@H](C)C[C@@H]2CC[C@@H](OCCCCc3cn(CCOCCOCCOCCOCCOCCOCCOCCOCCC(=O)NCc4ccc(Cn5nc(-c6ccc7oc(N)nc7c6)c6c(N)ncnc65)cc4)nn3)[C@H](OC)C2)CC(=O)[C@H](C)/C=C(\C)[C@@H](O)[C@@H](OC)C(=O)[C@H](C)C[C@H](C)/C=C/C=C/C=C/1C [Example 85] | 3.16 to 31.6 nM | < 1 nM | < 3.16 nM | – | –
2 | – | – | – | CO[C@H]1C[C@@H]2CC[C@@H](C)[C@@](O)(O2)C(=O)C(=O)N2CCCC[C@H]2C(=O)O[C@H]([C@H](C)C[C@@H]2CC[C@H](n3nncc3-c3cccc(-c4cnc(N5CCN(C(=O)CCc6cn(CCOCCOCCOCCC(=O)NCCCCn7nc(-c8ccc9oc(N)nc9c8)c8c(N)ncnc87)nn6)CC5)nc4)c3)[C@H](OC)C2)CC(=O)[C@H](C)/C=C(\C)[C@@H](O)[C@@H](OC)C(=O)[C@H](C)C[C@H](C)/C=C/C=C/C=C/1C [Example 48] | – | < 1 nM | – | 3.16 to 31.6 nM | < 3.16 nM
3 | – | – | – | CO[C@H]1C[C@@H]2CC[C@@H](C)[C@@](O)(O2)C(=O)C(=O)N2CCCC[C@H]2C(=O)O[C@H]([C@H](C)C[C@@H]2CC[C@@H](OCCCCc3cn(CCOCCOCCOCCNC(=O)CCCCC(=O)NCCCCn4nc(-c5ccc6oc(N)nc6c5)c5c(N)ncnc54)nn3)[C@H](OC)C2)CC(=O)[C@H](C)/C=C(\C)[C@@H](O)[C@@H](OC)C(=O)[C@H](C)C[C@H](C)/C=C/C=C/C=C/1C [Example 102] | – | < 1 nM | – | 3.16 to 31.6 nM | 3.16 to 31.6 nM
4 | – | – | – | CO[C@@H]1C[C@H](C[C@@H](C)[C@@H]2CC(=O)[C@H](C)/C=C(\C)[C@@H](O)[C@@H](OC)C(=O)[C@H](C)C[C@H](C)/C=C/C=C/C=C(\C)[C@@H](c3ccco3)C[C@@H]3CC[C@@H](C)[C@@](O)(O3)C(=O)C(=O)N3CCCC[C@H]3C(=O)O2)CC[C@H]1OCCCCc1cn(CCOCCOCCOCCOCCOCCOCCOCCOCCC(=O)NCCCCn2nc(-c3cc4cc(O)ccc4[nH]3)c3c(N)ncnc32)nn1 [Example 76] | – | < 1 nM | – | 3.16 to 31.6 nM | < 3.16 nM
5 | – | – | – | CO[C@H]1C[C@@H]2CC[C@@H](C)[C@@](O)(O2)C(=O)C(=O)N2CCCC[C@H]2C(=O)O[C@H]([C@H](C)C[C@@H]2CC[C@H](n3cc(CCCC(=O)NCCOCCOCCOCCC(=O)NCCOCCOCCC(=O)NCCCCn4nc(-c5ccc6oc(N)nc6c5)c5c(N)ncnc54)nn3)[C@H](OC)C2)C[C@@H](OC)[C@H](C)/C=C(\C)[C@@H](O)[C@@H](OC)C(=O)[C@H](C)C[C@H](C)/C=C/C=C/C=C/1C [Example 162] | – | 1 to 10 nM | – | > 1000 nM | 31.6 to 1000 nM
6 | – | – | – | CO[C@H]1C[C@@H]2CC[C@@H](C)[C@@](O)(O2)C(=O)C(=O)N2CCCC[C@H]2C(=O)O[C@H]([C@H](C)C[C@@H]2CC[C@H](n3cc(CCCC(=O)NCCOCCOCCOCCC(=O)NCCOCCOCCOCCC(=O)NCCCCn4nc(-c5ccc6oc(N)nc6c5)c5c(N)ncnc54)nn3)[C@H](OC)C2)C[C@@H](OC)[C@H](C)/C=C(\C)[C@@H](O)[C@@H](OC)C(=O)[C@H](C)C[C@H](C)/C=C/C=C/C=C/1C [Example 164] | – | < 1 nM | – | 31.6 to 1000 nM | 3.16 to 31.6 nM
7 | – | – | – | COC(=O)N[C@H]1C[C@@H]2CC[C@@H](C)[C@@](O)(O2)C(=O)C(=O)N2CCCC[C@H]2C(=O)O[C@H]([C@H](C)C[C@@H]2CC[C@@H](OCCCCc3cn(CCOCCOCCOCCOCCOCCOCCOCCOCCC(=O)N4CCN(c5ccc(-n6c(=O)n(C)c7cnc8ccc(-c9ccc(OC)nc9)cc8c76)cc5C(F)(F)F)CC4)nn3)[C@H](OC)C2)CC(=O)[C@H](C)/C=C(\C)[C@@H](O)[C@@H](OC)C(=O)[C@H](C)CC(C)/C=C/C=C/C=C/1C (stereo partly drawn) [Example 72] | – | < 1 nM | – | < 3.16 nM | < 3.16 nM
8 | – | – | – | CO[C@H]1C[C@@H]2CC[C@@H](C)[C@@](O)(O2)C(=O)C(=O)N2CCCC[C@H]2C(=O)O[C@H]([C@H](C)C[C@@H]2CC[C@H](n3cc(-c4cnc(N5CCN(c6ncc(C(=O)NCCOCCOCCC(=O)NCCCCn7nc(-c8ccc9oc(N)nc9c8)c8c(N)ncnc87)cn6)CC5)nc4)nn3)[C@H](OC)C2)CC(=O)[C@H](C)/C=C(\C)[C@@H](O)[C@@H](OC)C(=O)[C@H](C)C[C@H](C)/C=C/C=C/C=C/1C [Example 111] | – | < 1 nM | – | 31.6 to 1000 nM | 31.6 to 1000 nM
9 | – | – | – | CO[C@@H]1C[C@H](C[C@@H](C)[C@@H]2CC(=O)[C@H](C)/C=C(\C)[C@@H](O)[C@@H](OC)C(=O)[C@H](C)C[C@H](C)/C=C/C=C/C=C(\C)[C@@H](c3ccco3)C[C@@H]3CC[C@@H](C)[C@@](O)(O3)C(=O)C(=O)N3CCCC[C@H]3C(=O)O2)CC[C@H]1OCCCCc1cn(CCOCCOCCOCCOCCOCCOCCOCCOCCC(=O)NCCCCn2nc(-c3ccc4oc(N)nc4c3)c3c(N)ncnc32)nn1 [Example 18] | – | < 1 nM | – | < 3.16 nM | < 3.16 nM
10 | – | – | – | CO[C@H]1C[C@@H]2CC[C@@H](C)[C@@](O)(O2)C(=O)C(=O)N2CCCC[C@H]2C(=O)O[C@H]([C@H](C)C[C@@H]2CC[C@H](n3nncc3-c3cccc(-c4cnc(N5CCN(Cc6cn(CCOCCOCCOCCOCCOCCC(=O)NCCCCn7nc(-c8ccc9oc(N)nc9c8)c8c(N)ncnc87)nn6)CC5)nc4)c3)[C@H](OC)C2)CC(=O)[C@H](C)/C=C(\C)[C@@H](O)[C@@H](OC)C(=O)[C@H](C)C[C@H](C)/C=C/C=C/C=C/1C [Example 29] | – | < 1 nM | – | 3.16 to 31.6 nM | < 3.16 nM
11 | – | – | – | CO[C@H]1C[C@@H]2CC[C@@H](C)[C@@](O)(O2)C(=O)C(=O)N2CCCC[C@H]2C(=O)O[C@H]([C@H](C)C[C@@H]2CC[C@H](n3cc(CCCC(=O)NCCOCCOCCOCCC(=O)NCCOCCOCCOCCOCCC(=O)NCCCCn4nc(-c5ccc6oc(N)nc6c5)c5c(N)ncnc54)nn3)[C@H](OC)C2)CC(=O)[C@H](C)/C=C(\C)[C@@H](O)[C@@H](OC)C(=O)[C@H](C)C[C@H](C)/C=C/C=C/C=C/1C [Example 132] | – | 1 to 10 nM | – | 31.6 to 1000 nM | 3.16 to 31.6 nM
12 | 3.7 nM | 1.4 nM | 16 nM | CC(C)n1nc(-c2ccc3oc(N)nc3c2)c2c(N)ncnc21 [MLN-128, reference compound] | – | – | – | – | –
13 | – | – | – | CO[C@H]1C[C@@H]2CC[C@@H](C)[C@@](O)(O2)C(=O)C(=O)N2CCCC[C@H]2C(=O)O[C@H]([C@H](C)C[C@@H]2CC[C@@H](O)[C@H](OC)C2)C[C@@H](O)[C@H](C)/C=C(\C)[C@@H](O)[C@@H](OC)C(=NOCc2cn(CCOCCOCCOCCOCCOCCOCCOCCOCCC(=O)NCCCCn3nc(-c4cnc5[nH]ccc5c4)c4c(N)ncnc43)nn2)[C@H](C)C[C@H](C)/C=C/C=C/C=C/1C [Example 79] | – | < 1 nM | – | 31.6 to 1000 nM | 3.16 to 31.6 nM
14 | – | – | – | CO[C@H]1C[C@@H]2CC[C@@H](C)[C@@](O)(O2)C(=O)C(=O)N2CCCC[C@H]2C(=O)O[C@H]([C@H](C)C[C@@H]2CC[C@H](n3cc(COC(=O)NCCOCCOCCOCCC(=O)NCCOCCOCCOCCC(=O)NCCCCn4nc(-c5ccc6oc(N)nc6c5)c5c(N)ncnc54)nn3)[C@H](OC)C2)C[C@@H](OC)[C@H](C)/C=C(\C)[C@@H](O)[C@@H](OC)C(=O)[C@H](C)C[C@H](C)/C=C/C=C/C=C/1C [Example 145] | – | 1 to 10 nM | – | > 1000 nM | 31.6 to 1000 nM
15 | – | – | – | CCO[C@@H]1C[C@@H]([C@H](C)C[C@@H]2CC[C@@H](O)[C@H](OC)C2)OC(=O)[C@@H]2CCCCN2C(=O)C(=O)[C@]2(O)O[C@@H](CC[C@H]2C)C[C@H](OC)/C(C)=C/C=C/C=C/[C@@H](C)C[C@@H](C)C(=NOCc2cn(CCOCCOCCOCCOCCOCCOCCC(=O)NCCCCn3nc(-c4ccc5oc(N)nc5c4)c4c(N)ncnc43)nn2)[C@H](OC)[C@H](O)/C(C)=C/[C@H]1C [Example 65] | – | 1 to 10 nM | – | 31.6 to 1000 nM | 3.16 to 31.6 nM
16 | – | – | – | CO[C@H]1C[C@@H]2CC[C@@H](C)[C@@](O)(O2)C(=O)C(=O)N2CCCC[C@H]2C(=O)O[C@H]([C@H](C)C[C@@H]2CC[C@H](n3cc(CCCC(=O)NCCOCCOCCOCCC(=O)NCCOCCOCCOCCC(=O)NCCCCn4nc(-c5ccc6oc(N)nc6c5)c5c(N)ncnc54)nn3)[C@H](OC)C2)C/C(=N/OCc2ccccc2)[C@H](C)/C=C(\C)[C@@H](O)[C@@H](OC)C(=O)[C@H](C)C[C@H](C)/C=C/C=C/C=C/1C [Example 174] | – | 10 to 1000 nM | – | > 1000 nM | > 1000 nM
